Data published in US8147852B2, “Modified azole compounds as antifungal and antibacterial agents” (Barrier Therapeutics, Inc., priority 2006, dated 2012).
≈ marks a conversion by molar mass, not a printed value.

Experiments:
Assay type in all cases: cell-based
[1] = tested on: C. tropicalis; experiment: MIC100 against C. tropicalis; details: Candida tropicalis; C. tropicalis 19596(w.t), wild type; 48 h
[2] = tested on: C. glabrata; experiment: MIC100 against C. glabrata strains; details: Nakaseomyces glabratus, 48 h
[3] = tested on: C. albicans; experiment: MIC100 against C. albicans strains; details: Candida albicans, 48 h

MIC [1]: 8.3 µM (≈ 3.45 µg/mL)
MIC ([2]; C. glabrata 05/1032(r), resistant): 8.3 µM (≈ 3.45 µg/mL)
MIC ([2]; C. glabrata 05/1414(r), resistant): 17 µM (≈ 7.07 µg/mL)
MIC ([2]; C. glabrata 19371(w.t.), wild type): 4.17 µM (≈ 1.74 µg/mL)
MIC ([3]; C. albicans 19457(w.t), wild type): 4.17 µM (≈ 1.74 µg/mL)
MIC ([3]; C. albicans 19507(r), resistant): 4.17 µM (≈ 1.74 µg/mL)
MIC ([3]; C. albicans 20126(r), resistant): 17 µM (≈ 7.07 µg/mL)
SMILES: Clc1ccc(COC(Cn2ccnc2)c2ccc(Cl)cc2Cl)c(Cl)c1 (stereo not shown) [miconazole]
